# According to patent US10894787B2, “Modulators of the GPR119 receptor and the treatment of disorders related thereto” (Arena Pharmaceuticals, Inc., priority 2010, dated 2021):
# Molecular target: T1, GPR119 receptor (Homo sapiens, UniProt Q8TDV5)
# T1 construct: expressed in transfected cells
# T1 sequence (Q8TDV5 2-335 limits assumed): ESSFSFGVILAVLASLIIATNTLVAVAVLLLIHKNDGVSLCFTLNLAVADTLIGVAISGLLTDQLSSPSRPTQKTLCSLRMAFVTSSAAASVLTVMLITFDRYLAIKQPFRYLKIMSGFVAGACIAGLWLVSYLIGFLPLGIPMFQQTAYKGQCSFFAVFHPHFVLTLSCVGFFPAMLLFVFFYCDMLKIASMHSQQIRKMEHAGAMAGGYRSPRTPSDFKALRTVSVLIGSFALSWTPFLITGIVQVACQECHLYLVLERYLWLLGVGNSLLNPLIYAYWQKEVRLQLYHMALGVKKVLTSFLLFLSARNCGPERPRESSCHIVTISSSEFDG
# Test: HTRF assay for direct cAMP measurement in CHO-K1 cells stably expressing the GPR119 receptor
# Assay type: cell-based
# Settings: CHO-K1 cells stably expressing GPR119; 1 h incubation at room temperature; read-out: EC50, HTRF cAMP assay
# Protocol: The GPR119 agonist, Compound 1, was evaluated in an HTRF® cAMP detection assay according to the manufacturer's instructions (Cisbio, cAMP Dynamic 2 Assay Kit; #62AM4PEJ) using CHO-K1 cells stably expressing the GPR119 receptor. Briefly, CHO-K1 cells were transduced with a lentiviral vector encoding the nucleotide sequence of GPR119 (NCBI mRNA and protein reference sequences: NM_178471.2 & NP_848566, (GPR119 has also been referred to as Glucose-Dependent Insulinotropic Receptor (GDIR)). The N-terminus of the GPR119 nucleotide sequence was modified to replace the first, methionine-coding codon with a nucleotide sequence coding for a standard, nine amino acid, hemagglutinin tag. Following transduction, cells expressing the GPR119 receptor were isolated and a single clone was isolated following standard dilution-cloning procedures. On the day of the assay, cultured CHO-GPR119 cells were harvested, suspended in assay buffer and plated into 384-well assay plates (PerkinElmer Proxiplate #6008280) at a density of 2,000 cells per well. A cAMP standard curve was included on each plate. Test compounds were solubilized in DMSO, serially diluted in DMSO and then diluted in assay buffer before adding to the cells. Test compounds were evaluated in triplicate, using 10-point, 5-fold serial dilutions starting at 10 μM. The final DMSO concentration in the assay was 0.5%. Compounds and cells were incubated for 1 h at room temperature and then detection reagents were added to each well (cAMP-D2 in cell lysis buffer, followed by europium cryptate-labeled anti-cAMP antibody). Plates were then incubated at room temperature for 1 h prior to reading. Time-resolved fluorescence measurements were collected on PerkinElmer Envision™ or BMG Pherastar™ microplate readers. The compound N-(2-fluoro-4-(methylsulfonyl)phenyl)-6-(4-(3-isopropyl-1,2,4-oxadiazol-5-yl)piperidin-1-yl)-5-nitropyrimidin-4-amine was used as a positive control in each runset while assay buffer containing 0.5% DMSO was used as the negative control.
structure (smiles),measurement,value
"CN(C)C(=O)c1ccc(Nc2ncnc(N3CCC(c4nc(C(C)(C)F)no4)CC3)c2F)c(F)c1 [Compound 1, 3-fluoro-4-(5-fluoro-6-(4-(3-(2-fluoropropan-2-yl)-1,2,4-oxadiazol-5-yl)piperidin-1-yl)pyrimidin-4-ylamino)-N,N-dimethylbenzamide]",EC50,0.0234 µM
